From PubChem BioAssay (NCI)
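Each compound was tested at five concentrations against cells in 96-well plates for 48 hours. Abbreviation: GI50, concentration required for 50% inhibition of growth. TGI is the concentration that stops growth completely.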

Columns and labels:
Experiment in all cases: growth of human tumour cells (NCI), 48 h
K-562 leukemia = system: K-562 leukemia
A549 NSCLC = system: A549 NSCLC
HS 578T breast = system: HS 578T breast
786-0 renal = system: 786-0 renal
HCT-15 colon = system: HCT-15 colon
KM12 colon = system: KM12 colon
HCC-2998 colon = system: HCC-2998 colon
NCI/ADR-RES ovarian = system: NCI/ADR-RES ovarian
MCF7 breast = system: MCF7 breast
HL-60(TB) leukemia = system: HL-60(TB) leukemia
NCI-H226 lung = system: NCI-H226 lung
NCI-H460 lung = system: NCI-H460 lung
ACHN renal = system: ACHN renal
OVCAR-5 ovarian = system: OVCAR-5 ovarian
RXF 393 renal = system: RXF 393 renal
SK-MEL-28 melanoma = system: SK-MEL-28 melanoma
SK-OV-3 ovarian = system: SK-OV-3 ovarian
CCRF-CEM leukemia = system: CCRF-CEM leukemia
IGROV1 ovarian = system: IGROV1 ovarian
SN12C renal = system: SN12C renal
UACC-257 melanoma = system: UACC-257 melanoma
NCI-H522 lung = system: NCI-H522 lung
MDA-N = system: MDA-N
SNB-19 CNS = system: SNB-19 CNS
HOP-62 NSCLC = system: HOP-62 NSCLC
M14 melanoma = system: M14 melanoma
SF-268 CNS = system: SF-268 CNS
OVCAR-4 ovarian = system: OVCAR-4 ovarian
A498 renal = system: A498 renal
SK-MEL-5 melanoma = system: SK-MEL-5 melanoma
SK-MEL-2 melanoma = system: SK-MEL-2 melanoma
OVCAR-3 ovarian = system: OVCAR-3 ovarian
PC-3 prostate = system: PC-3 prostate
BT-549 breast = system: BT-549 breast
HOP-92 NSCLC = system: HOP-92 NSCLC
NCI-H23 lung = system: NCI-H23 lung
SR leukemia = system: SR leukemia
OVCAR-8 ovarian = system: OVCAR-8 ovarian
DU-145 prostate = system: DU-145 prostate
SW-620 colon = system: SW-620 colon
HT29 colon = system: HT29 colon
LOX IMVI melanoma = system: LOX IMVI melanoma
UO-31 renal = system: UO-31 renal
SNB-75 CNS = system: SNB-75 CNS
EKVX NSCLC = system: EKVX NSCLC
HCT-116 colon = system: HCT-116 colon
SF-539 CNS = system: SF-539 CNS
MOLT-4 leukemia = system: MOLT-4 leukemia
MDA-MB-435 = system: MDA-MB-435
RPMI-8226 leukemia = system: RPMI-8226 leukemia
COLO 205 colon = system: COLO 205 colon
SF-295 CNS = system: SF-295 CNS
CAKI-1 renal = system: CAKI-1 renal
MALME-3M melanoma = system: MALME-3M melanoma
UACC-62 melanoma = system: UACC-62 melanoma
MDA-MB-231 breast = system: MDA-MB-231 breast
U251 CNS = system: U251 CNS
T-47D breast = system: T-47D breast
TK-10 renal = system: TK-10 renal

For `COc1cc(S(=O)(=O)Nc2ccc(-c3csc(N4C(=O)CSC4c4cccs4)n3)cc2)ccc1Cl` (stereo not given), the TGI (K-562 leukemia) was 95.6 µM, the TGI (A549 NSCLC) was greater than 100 µM and the TGI (HS 578T breast) was 78.3 µM. For the same molecule, the TGI (786-0 renal) was greater than 100 µM, the TGI (HCT-15 colon) was greater than 100 µM and the TGI (KM12 colon) was 48.7 µM. It also gave a TGI (HCC-2998 colon) of 30.7 µM, a TGI (NCI/ADR-RES ovarian) greater than 100 µM and a TGI (MCF7 breast) of 31.7 µM. For the same molecule, the TGI (HL-60(TB) leukemia) was 41.5 µM, the TGI (NCI-H226 lung) was 81.8 µM and the TGI (NCI-H460 lung) was 91 µM. It also gave a TGI (ACHN renal) greater than 100 µM, a TGI (OVCAR-5 ovarian) greater than 100 µM and a TGI (RXF 393 renal) of 25.5 µM. It also gave a TGI (SK-MEL-28 melanoma) of 39.5 µM, a TGI (SK-OV-3 ovarian) greater than 100 µM and a TGI (CCRF-CEM leukemia) of 95.1 µM. The TGI (IGROV1 ovarian) was greater than 100 µM, the TGI (SN12C renal) was 73.7 µM and the TGI (UACC-257 melanoma) was 46 µM. It also gave a TGI (NCI-H522 lung) of 33.9 µM, a TGI (MDA-N) of 98.2 µM and a TGI (SNB-19 CNS) greater than 100 µM. For the same molecule, the TGI (HOP-62 NSCLC) was greater than 100 µM, the TGI (M14 melanoma) was greater than 100 µM and the TGI (SF-268 CNS) was 40.5 µM. For the same molecule, the TGI (OVCAR-4 ovarian) was 82.9 µM, the TGI (A498 renal) was greater than 100 µM and the TGI (SK-MEL-5 melanoma) was greater than 100 µM. The TGI (SK-MEL-2 melanoma) was 42.6 µM, the TGI (OVCAR-3 ovarian) was greater than 100 µM and the TGI (PC-3 prostate) was greater than 100 µM. The TGI (BT-549 breast) was 70.5 µM, the TGI (HOP-92 NSCLC) was greater than 100 µM and the TGI (NCI-H23 lung) was greater than 100 µM. The TGI (SR leukemia) was greater than 100 µM, the TGI (OVCAR-8 ovarian) was greater than 100 µM and the TGI (DU-145 prostate) was 62 µM. The TGI (SW-620 colon) was 68.5 µM, the TGI (HT29 colon) was greater than 100 µM and the TGI (LOX IMVI melanoma) was 36.6 µM. The TGI (UO-31 renal) was greater than 100 µM, the TGI (SNB-75 CNS) was 40.3 µM and the TGI (EKVX NSCLC) was greater than 100 µM. For the same molecule, the TGI (HCT-116 colon) was greater than 100 µM, the TGI (SF-539 CNS) was 61.6 µM and the TGI (MOLT-4 leukemia) was greater than 100 µM. For the same molecule, the TGI (MDA-MB-435) was greater than 100 µM, the TGI (RPMI-8226 leukemia) was 66.8 µM and the TGI (COLO 205 colon) was greater than 100 µM. It also gave a TGI (SF-295 CNS) greater than 100 µM, a TGI (CAKI-1 renal) greater than 100 µM and a TGI (MALME-3M melanoma) of 70.6 µM.

For `Fc1ccc(-c2nc3n(c2-c2ccncc2)CCS3)cc1`, the GI50 (UACC-62 melanoma) was greater than 25 µM, the TGI (UACC-62 melanoma) was greater than 25 µM and the GI50 (K-562 leukemia) was greater than 25 µM. It also gave a TGI (K-562 leukemia) greater than 25 µM, a GI50 (A549 NSCLC) greater than 25 µM and a TGI (A549 NSCLC) greater than 25 µM. It also gave a GI50 (HS 578T breast) greater than 25 µM, a TGI (HS 578T breast) greater than 25 µM and a GI50 (786-0 renal) greater than 25 µM. It also gave a TGI (786-0 renal) greater than 25 µM, a GI50 (HCT-15 colon) greater than 25 µM and a TGI (HCT-15 colon) greater than 25 µM. For the same molecule, the GI50 (KM12 colon) was greater than 25 µM, the TGI (KM12 colon) was greater than 25 µM and the GI50 (HCC-2998 colon) was greater than 25 µM. For the same molecule, the TGI (HCC-2998 colon) was greater than 25 µM, the GI50 (NCI/ADR-RES ovarian) was greater than 25 µM and the TGI (NCI/ADR-RES ovarian) was greater than 25 µM. The GI50 (MCF7 breast) was greater than 25 µM, the TGI (MCF7 breast) was greater than 25 µM and the GI50 (HL-60(TB) leukemia) was greater than 25 µM. It also gave a TGI (HL-60(TB) leukemia) greater than 25 µM, a GI50 (NCI-H226 lung) greater than 16.4 µM and a TGI (NCI-H226 lung) greater than 25 µM. The GI50 (NCI-H460 lung) was greater than 25 µM, the TGI (NCI-H460 lung) was greater than 25 µM and the GI50 (ACHN renal) was greater than 25 µM. The TGI (ACHN renal) was greater than 25 µM, the GI50 (OVCAR-5 ovarian) was greater than 25 µM and the TGI (OVCAR-5 ovarian) was greater than 25 µM. The GI50 (RXF 393 renal) was greater than 16.5 µM, the TGI (RXF 393 renal) was greater than 25 µM and the GI50 (MDA-MB-231 breast) was greater than 25 µM. For the same molecule, the TGI (MDA-MB-231 breast) was greater than 25 µM, the GI50 (SK-MEL-28 melanoma) was greater than 25 µM and the TGI (SK-MEL-28 melanoma) was greater than 25 µM. For the same molecule, the GI50 (SK-OV-3 ovarian) was greater than 25 µM, the TGI (SK-OV-3 ovarian) was greater than 25 µM and the GI50 (CCRF-CEM leukemia) was greater than 25 µM. It also gave a TGI (CCRF-CEM leukemia) greater than 25 µM, a GI50 (IGROV1 ovarian) greater than 25 µM and a TGI (IGROV1 ovarian) greater than 25 µM. It also gave a GI50 (SN12C renal) greater than 25 µM, a TGI (SN12C renal) greater than 25 µM and a GI50 (UACC-257 melanoma) greater than 25 µM. For the same molecule, the TGI (UACC-257 melanoma) was greater than 25 µM, the GI50 (NCI-H522 lung) was greater than 25 µM and the TGI (NCI-H522 lung) was greater than 25 µM. For the same molecule, the GI50 (SNB-19 CNS) was greater than 25 µM, the TGI (SNB-19 CNS) was greater than 25 µM and the GI50 (HOP-62 NSCLC) was greater than 25 µM. For the same molecule, the TGI (HOP-62 NSCLC) was greater than 25 µM, the GI50 (M14 melanoma) was greater than 25 µM and the TGI (M14 melanoma) was greater than 25 µM. For the same molecule, the GI50 (SF-268 CNS) was greater than 25 µM, the TGI (SF-268 CNS) was greater than 25 µM and the GI50 (OVCAR-4 ovarian) was 9.67 µM. The TGI (OVCAR-4 ovarian) was greater than 25 µM, the GI50 (A498 renal) was greater than 25 µM and the TGI (A498 renal) was greater than 25 µM. For the same molecule, the GI50 (SK-MEL-5 melanoma) was greater than 18 µM, the TGI (SK-MEL-5 melanoma) was greater than 25 µM and the GI50 (SK-MEL-2 melanoma) was greater than 25 µM. The TGI (SK-MEL-2 melanoma) was greater than 25 µM, the GI50 (OVCAR-3 ovarian) was greater than 25 µM and the TGI (OVCAR-3 ovarian) was greater than 25 µM. It also gave a GI50 (PC-3 prostate) greater than 25 µM, a TGI (PC-3 prostate) greater than 25 µM and a GI50 (BT-549 breast) greater than 25 µM. The TGI (BT-549 breast) was greater than 25 µM, the GI50 (HOP-92 NSCLC) was greater than 25 µM and the TGI (HOP-92 NSCLC) was greater than 25 µM. It also gave a GI50 (NCI-H23 lung) greater than 25 µM, a TGI (NCI-H23 lung) greater than 25 µM and a GI50 (SR leukemia) greater than 25 µM. The TGI (SR leukemia) was greater than 25 µM, the GI50 (OVCAR-8 ovarian) was greater than 25 µM and the TGI (OVCAR-8 ovarian) was greater than 25 µM. It also gave a GI50 (U251 CNS) greater than 25 µM, a TGI (U251 CNS) greater than 25 µM and a GI50 (DU-145 prostate) greater than 25 µM. For the same molecule, the TGI (DU-145 prostate) was greater than 25 µM, the GI50 (SW-620 colon) was greater than 25 µM and the TGI (SW-620 colon) was greater than 25 µM. For the same molecule, the GI50 (HT29 colon) was greater than 25 µM, the TGI (HT29 colon) was greater than 25 µM and the GI50 (LOX IMVI melanoma) was greater than 25 µM. It also gave a TGI (LOX IMVI melanoma) greater than 25 µM, a GI50 (T-47D breast) of 13.3 µM and a TGI (T-47D breast) greater than 25 µM. It also gave a GI50 (UO-31 renal) of 8.26 µM, a TGI (UO-31 renal) greater than 25 µM and a GI50 (SNB-75 CNS) greater than 25 µM. For the same molecule, the TGI (SNB-75 CNS) was greater than 25 µM, the GI50 (EKVX NSCLC) was greater than 25 µM and the TGI (EKVX NSCLC) was greater than 25 µM. The GI50 (HCT-116 colon) was greater than 25 µM, the TGI (HCT-116 colon) was greater than 25 µM and the GI50 (SF-539 CNS) was greater than 25 µM. The TGI (SF-539 CNS) was greater than 25 µM, the GI50 (MOLT-4 leukemia) was greater than 25 µM and the TGI (MOLT-4 leukemia) was greater than 25 µM. For the same molecule, the GI50 (MDA-MB-435) was greater than 25 µM, the TGI (MDA-MB-435) was greater than 25 µM and the GI50 (RPMI-8226 leukemia) was greater than 25 µM. It also gave a TGI (RPMI-8226 leukemia) greater than 25 µM, a GI50 (COLO 205 colon) greater than 25 µM and a TGI (COLO 205 colon) greater than 25 µM. It also gave a GI50 (SF-295 CNS) greater than 25 µM, a TGI (SF-295 CNS) greater than 25 µM and a GI50 (CAKI-1 renal) greater than 25 µM. It also gave a TGI (CAKI-1 renal) greater than 25 µM, a GI50 (MALME-3M melanoma) greater than 25 µM and a TGI (MALME-3M melanoma) greater than 25 µM. The GI50 (TK-10 renal) was greater than 25 µM and the TGI (TK-10 renal) was greater than 25 µM.
